Assay [1] deals with T1, alpha2A adrenergic receptor (Alpha2A) (Homo sapiens, UniProt P08913).
T1 sequence (P08913 1-465): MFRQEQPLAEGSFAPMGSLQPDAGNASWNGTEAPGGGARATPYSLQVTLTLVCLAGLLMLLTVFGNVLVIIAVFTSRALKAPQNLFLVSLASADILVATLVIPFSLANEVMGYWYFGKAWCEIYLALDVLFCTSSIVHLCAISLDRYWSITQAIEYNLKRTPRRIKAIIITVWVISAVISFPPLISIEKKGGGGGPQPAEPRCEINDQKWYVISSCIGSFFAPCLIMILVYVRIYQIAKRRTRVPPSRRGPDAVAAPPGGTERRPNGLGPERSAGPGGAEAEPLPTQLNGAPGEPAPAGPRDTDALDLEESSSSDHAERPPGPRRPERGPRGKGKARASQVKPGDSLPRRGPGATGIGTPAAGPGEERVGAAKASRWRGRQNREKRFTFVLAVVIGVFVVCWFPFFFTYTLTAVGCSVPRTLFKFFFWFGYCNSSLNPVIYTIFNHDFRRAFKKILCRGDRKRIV
The assay is described as follows: Competitive radioligand binding assay, Alpha2A. The settings on record: compound at 10 μM; radioligand yohimbine; cell membrane fractions; read-out: % Inhibition of Binding at Each Transporter or Receptor Target, Alpha2A. As to the method:
(§1) Compound 2 was tested for pharmacological activity in comparison to APC. Eight binding assays were carried out to provide a binding profile for each compound, including binding to dopamine transporter (DAT), norepinephrine transporter (NET), serotonin (5-HT) transporter (SERT), alpha2A adrenergic receptor (Alpha2A), alpha2C adrenergic receptor (Alpha2C), D2S dopamine receptor (D2S), D2L, dopamine receptor (D2L), and vesicular monoamine transporter (VMAT2). Competitive binding assays using a radiolabeled ligand were carried out with each compound at 10 μM. The radioligand for each target was as follows: DAT—BTCP, NET—protriptyline, SERT—imipramine Alpha2A—yohimbine, Alpha2C—yohimbine, D2S—7-OH-DPAT, D2L—butaclamol, VMAT2—tetrabenazine. The source of the receptors and transporters were prepared cell membrane fractions.

Assay [2] concerns the target T2, alpha2C adrenergic receptor (Alpha2C) (Homo sapiens, UniProt P18825).
T2 sequence (P18825 1-462): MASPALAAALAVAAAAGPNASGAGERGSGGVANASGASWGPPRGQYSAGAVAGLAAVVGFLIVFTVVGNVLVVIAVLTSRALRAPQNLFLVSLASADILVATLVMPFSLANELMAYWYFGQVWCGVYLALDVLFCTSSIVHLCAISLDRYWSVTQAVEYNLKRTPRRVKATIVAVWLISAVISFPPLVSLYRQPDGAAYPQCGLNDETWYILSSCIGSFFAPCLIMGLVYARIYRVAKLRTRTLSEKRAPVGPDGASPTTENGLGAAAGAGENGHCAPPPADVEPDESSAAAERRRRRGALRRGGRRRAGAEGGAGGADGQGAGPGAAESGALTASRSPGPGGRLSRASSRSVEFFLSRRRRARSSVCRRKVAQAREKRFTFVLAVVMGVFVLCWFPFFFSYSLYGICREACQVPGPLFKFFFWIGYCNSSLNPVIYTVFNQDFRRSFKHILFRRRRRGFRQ
The assay is described as follows: Competitive radioligand binding assay, Alpha2C. The following applies: compound at 10 μM; radioligand yohimbine; cell membrane fractions; read-out: % Inhibition of Binding at Each Transporter or Receptor Target, Alpha2C. As for the experimental part:
as §1

Assay [3] addresses D2L, dopamine receptor (D2L) (Homo sapiens, UniProt P14416). Put plainly: Competitive radioligand binding assay, D2L. The following applies: compound at 10 μM; radioligand butaclamol; cell membrane fractions; read-out: % Inhibition of Binding at Each Transporter or Receptor Target, D2L. As to the method: as §1
Assay [4] addresses serotonin (5-HT) transporter (SERT) (Homo sapiens, UniProt P31645). Put plainly: Competitive radioligand binding assay, SERT. The settings on record: compound at 10 μM; radioligand imipramine; cell membrane fractions; read-out: % Inhibition of Binding at Each Transporter or Receptor Target, SERT. As to the method:
as §1

The target in assay [5] is dopamine transporter (DAT) (Homo sapiens, UniProt Q01959). Put plainly: Competitive radioligand binding assay, DAT. The following applies: compound at 10 μM; radioligand BTCP; cell membrane fractions; read-out: % Inhibition of Binding at Each Transporter or Receptor Target, DAT. As for the experimental part: as §1
Assay [6] deals with vesicular monoamine transporter (VMAT2) (Homo sapiens, UniProt Q05940). The assay is described as follows: Competitive radioligand binding assay, VMAT2. The following applies: compound at 10 μM; radioligand tetrabenazine; cell membrane fractions; read-out: % Inhibition of Binding at Each Transporter or Receptor Target, VMAT2. As to the method: as §1
For assay [7], the target named is norepinephrine transporter (NET) (Homo sapiens, UniProt P23975). Put plainly: Competitive radioligand binding assay, NET. The settings on record: compound at 10 μM; radioligand protriptyline; cell membrane fractions; read-out: % Inhibition of Binding at Each Transporter or Receptor Target, NET. As to the method:
as §1

Assay [8] concerns the target D2S dopamine receptor (D2S) (Homo sapiens, UniProt P14416). Put plainly: Competitive radioligand binding assay, D2S. The settings on record: compound at 10 μM; radioligand 7-OH-DPAT; cell membrane fractions; read-out: % Inhibition of Binding at Each Transporter or Receptor Target, D2S. As for the experimental part:
as §1

Each structure is given as a SMILES string.

Inhibition data for two compounds are collected here from US11780805B2, “Carbamoyl phenylalaninol compounds and uses thereof” (AXSOME MALTA LTD., priority 2016, dated 2023).

One may read the inhibition as the drop in the measured response relative to a control, in per cent.

Sequence of vesicular monoamine transporter (VMAT2) (Q05940 whole entry, species assumed): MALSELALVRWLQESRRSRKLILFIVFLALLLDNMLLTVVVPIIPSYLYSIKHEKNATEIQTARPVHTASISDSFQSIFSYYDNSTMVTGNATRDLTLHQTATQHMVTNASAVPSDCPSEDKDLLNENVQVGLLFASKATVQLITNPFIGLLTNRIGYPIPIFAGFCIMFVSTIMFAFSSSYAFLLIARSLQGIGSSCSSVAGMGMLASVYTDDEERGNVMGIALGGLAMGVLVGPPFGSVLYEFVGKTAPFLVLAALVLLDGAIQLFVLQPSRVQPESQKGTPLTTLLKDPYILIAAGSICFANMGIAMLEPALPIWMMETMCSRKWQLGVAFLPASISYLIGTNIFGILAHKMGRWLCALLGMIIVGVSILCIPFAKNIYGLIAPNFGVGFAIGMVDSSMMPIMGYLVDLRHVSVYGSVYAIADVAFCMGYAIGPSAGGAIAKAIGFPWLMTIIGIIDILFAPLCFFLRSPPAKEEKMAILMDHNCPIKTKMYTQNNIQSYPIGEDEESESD
Sequence of D2S dopamine receptor (D2S) (P14416 1-414 isoform P14416-2): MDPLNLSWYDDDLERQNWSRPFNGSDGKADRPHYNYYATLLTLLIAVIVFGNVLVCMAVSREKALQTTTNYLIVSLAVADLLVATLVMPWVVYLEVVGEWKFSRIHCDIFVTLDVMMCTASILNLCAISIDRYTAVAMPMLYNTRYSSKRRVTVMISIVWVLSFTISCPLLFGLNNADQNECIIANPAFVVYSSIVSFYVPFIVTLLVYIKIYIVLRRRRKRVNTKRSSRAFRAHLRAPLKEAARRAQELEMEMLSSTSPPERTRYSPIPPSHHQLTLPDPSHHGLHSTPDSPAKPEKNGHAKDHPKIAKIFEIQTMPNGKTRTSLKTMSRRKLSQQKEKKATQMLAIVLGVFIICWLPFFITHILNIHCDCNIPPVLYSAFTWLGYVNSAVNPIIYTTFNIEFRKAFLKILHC
Sequence of dopamine transporter (DAT) (Q01959 whole entry, species assumed): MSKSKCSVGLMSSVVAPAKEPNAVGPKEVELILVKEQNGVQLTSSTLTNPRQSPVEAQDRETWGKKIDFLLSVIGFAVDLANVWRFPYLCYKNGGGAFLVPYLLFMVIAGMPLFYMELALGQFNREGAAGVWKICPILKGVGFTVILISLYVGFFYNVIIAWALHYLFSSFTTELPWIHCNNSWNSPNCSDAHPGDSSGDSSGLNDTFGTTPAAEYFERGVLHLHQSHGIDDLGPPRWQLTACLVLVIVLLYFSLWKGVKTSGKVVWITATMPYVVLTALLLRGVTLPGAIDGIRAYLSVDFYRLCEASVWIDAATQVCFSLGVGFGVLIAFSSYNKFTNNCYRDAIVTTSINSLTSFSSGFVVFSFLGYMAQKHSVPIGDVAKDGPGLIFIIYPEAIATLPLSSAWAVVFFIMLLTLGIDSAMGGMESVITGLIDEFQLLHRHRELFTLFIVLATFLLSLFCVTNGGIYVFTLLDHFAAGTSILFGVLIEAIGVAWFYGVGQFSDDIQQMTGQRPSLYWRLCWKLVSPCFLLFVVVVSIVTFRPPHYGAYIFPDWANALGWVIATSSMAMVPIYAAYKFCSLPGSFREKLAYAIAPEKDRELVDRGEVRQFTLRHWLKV
Sequence of serotonin (5-HT) transporter (SERT) (P31645 whole entry, species assumed): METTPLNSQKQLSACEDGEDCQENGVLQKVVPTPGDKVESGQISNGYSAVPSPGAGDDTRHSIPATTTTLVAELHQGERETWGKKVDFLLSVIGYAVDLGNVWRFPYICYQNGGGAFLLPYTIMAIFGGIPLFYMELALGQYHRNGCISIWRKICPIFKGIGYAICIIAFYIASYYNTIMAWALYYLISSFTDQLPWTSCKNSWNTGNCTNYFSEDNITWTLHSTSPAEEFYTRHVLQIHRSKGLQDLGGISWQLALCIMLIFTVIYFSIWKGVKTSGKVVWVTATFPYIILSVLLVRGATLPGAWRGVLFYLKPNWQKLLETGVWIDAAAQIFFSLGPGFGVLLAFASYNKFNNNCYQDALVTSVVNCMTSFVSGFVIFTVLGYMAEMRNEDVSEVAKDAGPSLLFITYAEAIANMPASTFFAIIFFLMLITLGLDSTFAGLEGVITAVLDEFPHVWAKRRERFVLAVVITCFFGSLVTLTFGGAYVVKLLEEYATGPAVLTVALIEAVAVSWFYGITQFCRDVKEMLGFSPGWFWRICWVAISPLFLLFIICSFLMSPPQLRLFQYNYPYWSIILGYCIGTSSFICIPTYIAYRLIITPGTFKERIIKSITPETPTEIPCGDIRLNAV
Sequence of norepinephrine transporter (NET) (P23975 whole entry, species assumed): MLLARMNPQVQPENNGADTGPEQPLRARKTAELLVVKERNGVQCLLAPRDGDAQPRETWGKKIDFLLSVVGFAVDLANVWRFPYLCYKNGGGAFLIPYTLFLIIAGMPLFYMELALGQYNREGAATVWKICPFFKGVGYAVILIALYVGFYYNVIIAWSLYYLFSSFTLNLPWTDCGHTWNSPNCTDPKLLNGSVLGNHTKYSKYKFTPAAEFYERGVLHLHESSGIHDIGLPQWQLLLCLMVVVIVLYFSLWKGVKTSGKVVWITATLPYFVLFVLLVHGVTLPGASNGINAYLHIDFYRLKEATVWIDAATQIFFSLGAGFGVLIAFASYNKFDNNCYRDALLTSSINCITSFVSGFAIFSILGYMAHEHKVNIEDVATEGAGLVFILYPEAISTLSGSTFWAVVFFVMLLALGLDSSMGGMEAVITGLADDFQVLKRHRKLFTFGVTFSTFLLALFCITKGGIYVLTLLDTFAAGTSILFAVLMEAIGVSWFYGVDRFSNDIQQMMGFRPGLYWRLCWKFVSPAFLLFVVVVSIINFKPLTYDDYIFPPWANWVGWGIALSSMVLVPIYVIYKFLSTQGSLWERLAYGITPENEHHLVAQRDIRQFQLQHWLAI
Sequence of D2L, dopamine receptor (D2L) (P14416 whole entry): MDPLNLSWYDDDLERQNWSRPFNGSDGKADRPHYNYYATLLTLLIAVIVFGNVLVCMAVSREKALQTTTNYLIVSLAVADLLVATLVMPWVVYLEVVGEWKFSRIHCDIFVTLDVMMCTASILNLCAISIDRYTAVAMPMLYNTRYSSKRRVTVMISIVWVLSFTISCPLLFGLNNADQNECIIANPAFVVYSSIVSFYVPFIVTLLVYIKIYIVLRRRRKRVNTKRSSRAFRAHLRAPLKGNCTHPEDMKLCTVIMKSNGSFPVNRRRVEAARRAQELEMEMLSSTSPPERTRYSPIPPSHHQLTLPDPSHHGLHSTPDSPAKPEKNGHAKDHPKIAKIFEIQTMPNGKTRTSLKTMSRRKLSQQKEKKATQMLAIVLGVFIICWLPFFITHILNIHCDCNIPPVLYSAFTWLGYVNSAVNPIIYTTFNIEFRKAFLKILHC

`NC(=O)OC[C@H](N)Cc1ccccc1` [APC, (R)-2-amino-3-phenylpropyl carbamate]: the inhibition at 10 µM in assay [1] was 16.5%; in assay [2], 7.4%; in assay [3] it was -3.4%; in assay [4] it was 4%; in assay [5], 81.4%; in assay [6], 12%. Besides, the results for the inhibition at 10 µM in assay [7] and in assay [8] were 6.2% and 18.7%, respectively.
With `NC(=O)NC(=O)OC[C@H](N)Cc1ccccc1` [Compound 2, D-phenylalaninol allophanate], the inhibition at 10 µM in assay [1] is 28%; in assay [2], 52.1%; in assay [3] it was -5.5%; in assay [4] it was 3.4%; in assay [5], 80.6%; in assay [6], -1%. The inhibition at 10 µM in assay [7] worked out at 2.7%; in assay [8] it was 11.8%.
